Assay results reported in ChEMBL document CHEMBL2380271, “Synthesis and biological evaluation of a class of quinolone triazoles as potential antimicrobial agents and their interactions with calf thymus DNA” (2013).
Converted amounts (≈) assume the structure as drawn. The source made the active and inactive calls. No cut-off for these calls is given here.

What was measured:
[1] = test system: Shigella dysenteriae; experiment: Antibacterial activity against Shigella dysenteriae by NCCLS method; format: functional
[2] = test system: Aspergillus flavus; experiment: Antifungal activity against Aspergillus flavus by NCCLS method; format: functional
[3] = test system: Micrococcus luteus; experiment: Antibacterial activity against Micrococcus luteus ATCC 4698 by NCCLS method; format: functional
[4] = test system: Escherichia coli; experiment: Antibacterial activity against Escherichia coli DH52 by NCCLS method; format: functional
[5] = test system: Staphylococcus aureus; experiment: Antibacterial activity against methicillin-resistant Staphylococcus aureus N315 by NCCLS method; format: functional
[6] = test system: Pseudomonas aeruginosa; experiment: Antibacterial activity against Pseudomonas aeruginosa by NCCLS method; format: functional
[7] = test system: Saccharomyces cerevisiae; experiment: Antifungal activity against Saccharomyces cerevisiae by NCCLS method; format: functional
[8] = test system: Staphylococcus aureus; experiment: Antibacterial activity against Staphylococcus aureus ATCC 25923 by NCCLS method; format: functional
[9] = test system: Candida albicans; experiment: Antifungal activity against Candida albicans by NCCLS method; format: functional
[10] = test system: Cyberlindnera jadinii; experiment: Antifungal activity against Candida utilis by NCCLS method; format: functional; conditions: Williopsis jadinii
[11] = test system: Salmonella typhi; experiment: Antibacterial activity against Eberthella typhosa by NCCLS method; format: functional, Salmonella enterica subsp. enterica serovar Typhi; conditions: Salmonella enterica
[12] = test system: DNA; experiment: Binding affinity to calf thymus DNA-NR complex assessed as increase in fluorescence intensity at 726 nm wavelength; format: nucleic-acid assay; conditions: Bos taurus
[13] = test system: DNA; experiment: Binding affinity to calf thymus DNA by fluorescence quenching assay in presence of potassium iodide; format: nucleic-acid assay; conditions: Bos taurus
[14] = test system: DNA; experiment: Binding affinity to calf thymus DNA at 0.5 to 3x10'-5 mol/L by fluorescence quenching assay; format: nucleic-acid assay; conditions: Bos taurus
[15] = test system: DNA; experiment: Binding affinity to calf thymus DNA-NR complex assessed as decrease in fluorescence intensity at 640 nm wavelength; format: nucleic-acid assay; conditions: Bos taurus
[16] = test system: DNA; experiment: Competitive binding affinity to calf thymus DNA by UV-vis spectroscopic analysis in presence of neutral red; format: nucleic-acid assay; conditions: Bos taurus
[17] = test system: DNA; experiment: Binding affinity to calf thymus DNA assessed as blue shift by UV-vis spectroscopic analysis; format: nucleic-acid assay; conditions: Bos taurus
[18] = test system: Staphylococcus aureus; experiment: Ratio of norfloxacin MIC to compound MIC for methicillin-resistant Staphylococcus aureus N315; format: functional
[19] = test system: Staphylococcus aureus; experiment: Ratio of chloromycin MIC to compound MIC for methicillin-resistant Staphylococcus aureus N315; format: functional

Row | SMILES | MIC [1] | MIC [2] | MIC [3] | MIC [4] | MIC [5] | MIC [6] | MIC [7] | MIC [8] | MIC [9] | MIC [10] | MIC [11] | Activity [12] | KSV [13] | Activity [14] | Activity [15] | Activity [16] | K [17] | Ratio [18] | Ratio [19]
1 | O=C(O)c1cn(CC(O)Cn2cncn2)c2c(F)cc(F)cc2c1=O (stereo not drawn) | 16 µg/mL (≈ 45.7 µM) | 256 µg/mL (≈ 731 µM) | 2 µg/mL (≈ 5.71 µM) | 2 µg/mL (≈ 5.71 µM) | 8 µg/mL (≈ 22.8 µM) | 2 µg/mL (≈ 5.71 µM) | 512 µg/mL (≈ 1460 µM) | 2 µg/mL (≈ 5.71 µM) | 8 µg/mL (≈ 22.8 µM) | > 512 µg/mL | 1 µg/mL (≈ 2.85 µM) | – | – | – | – | – | – | – | –
2 | Cc1ccc2c(c1)c(=O)c(C(=O)O)cn2CC(O)Cn1cncn1 (stereo not drawn) | 32 µg/mL (≈ 97.5 µM) | 0.5 µg/mL (≈ 1.52 µM) | 16 µg/mL (≈ 48.7 µM) | 32 µg/mL (≈ 97.5 µM) | 8 µg/mL (≈ 24.4 µM) | 16 µg/mL (≈ 48.7 µM) | 4 µg/mL (≈ 12.2 µM) | 32 µg/mL (≈ 97.5 µM) | 2 µg/mL (≈ 6.09 µM) | > 512 µg/mL | 8 µg/mL (≈ 24.4 µM) | Active | 6.53 L/mol | Active | Active | Active | 1.43 ×10³ L/mol | – | –
3 | O=C(O)c1cn(CC(O)Cn2cncn2)c2ccc(F)cc2c1=O (stereo not drawn) | 0.5 µg/mL (≈ 1.5 µM) | 512 µg/mL (≈ 1540 µM) | 32 µg/mL (≈ 96.3 µM) | 32 µg/mL (≈ 96.3 µM) | 1 µg/mL (≈ 3.01 µM) | 8 µg/mL (≈ 24.1 µM) | 512 µg/mL (≈ 1540 µM) | 128 µg/mL (≈ 385 µM) | 64 µg/mL (≈ 193 µM) | > 512 µg/mL | 1 µg/mL (≈ 3.01 µM) | – | – | – | – | – | – | 8 | 16
4 | O=C(O)c1cn(CC(O)Cn2cncn2)c2cc(C(F)(F)F)ccc2c1=O (stereo not drawn) | 1 µg/mL (≈ 2.62 µM) | 512 µg/mL (≈ 1340 µM) | 2 µg/mL (≈ 5.23 µM) | 8 µg/mL (≈ 20.9 µM) | 1 µg/mL (≈ 2.62 µM) | 8 µg/mL (≈ 20.9 µM) | 256 µg/mL (≈ 670 µM) | 1 µg/mL (≈ 2.62 µM) | 1 µg/mL (≈ 2.62 µM) | > 512 µg/mL | 4 µg/mL (≈ 10.5 µM) | – | – | – | – | – | – | 8 | 16
5 | O=C(O)c1cn(CC(O)Cn2cncn2)c2cc(Cl)c(F)cc2c1=O (stereo not drawn) | 64 µg/mL (≈ 175 µM) | 128 µg/mL (≈ 349 µM) | 16 µg/mL (≈ 43.6 µM) | 8 µg/mL (≈ 21.8 µM) | 64 µg/mL (≈ 175 µM) | 2 µg/mL (≈ 5.45 µM) | 256 µg/mL (≈ 698 µM) | 64 µg/mL (≈ 175 µM) | 16 µg/mL (≈ 43.6 µM) | > 512 µg/mL | 4 µg/mL (≈ 10.9 µM) | – | – | – | – | – | – | – | –
6 | O=C(O)c1cn(CC(O)Cn2cncn2)c2c(Cl)cc(Cl)cc2c1=O (stereo not drawn) | 4 µg/mL (≈ 10.4 µM) | 256 µg/mL (≈ 668 µM) | 64 µg/mL (≈ 167 µM) | 64 µg/mL (≈ 167 µM) | 4 µg/mL (≈ 10.4 µM) | 8 µg/mL (≈ 20.9 µM) | 128 µg/mL (≈ 334 µM) | 64 µg/mL (≈ 167 µM) | 32 µg/mL (≈ 83.5 µM) | > 512 µg/mL | 16 µg/mL (≈ 41.8 µM) | – | – | – | – | – | – | – | –
7 | O=C(O)c1cn(CC(O)Cn2cncn2)c2c(F)cccc2c1=O (stereo not drawn) | 1 µg/mL (≈ 3.01 µM) | 128 µg/mL (≈ 385 µM) | 8 µg/mL (≈ 24.1 µM) | 4 µg/mL (≈ 12 µM) | 64 µg/mL (≈ 193 µM) | 8 µg/mL (≈ 24.1 µM) | 256 µg/mL (≈ 770 µM) | 32 µg/mL (≈ 96.3 µM) | 16 µg/mL (≈ 48.2 µM) | > 512 µg/mL | 64 µg/mL (≈ 193 µM) | – | – | – | – | – | – | – | –
8 | CCOC(=O)c1cn(CC(O)Cn2cncn2)c2cc(C(F)(F)F)ccc2c1=O (racemic) | 32 µg/mL (≈ 78 µM) | 8 µg/mL (≈ 19.5 µM) | 2 µg/mL (≈ 4.87 µM) | 32 µg/mL (≈ 78 µM) | 32 µg/mL (≈ 78 µM) | 1 µg/mL (≈ 2.44 µM) | 64 µg/mL (≈ 156 µM) | 16 µg/mL (≈ 39 µM) | 64 µg/mL (≈ 156 µM) | 128 µg/mL (≈ 312 µM) | 0.5 µg/mL (≈ 1.22 µM) | – | – | – | – | – | – | – | –
9 | CCOC(=O)c1cn(CC(O)Cn2cncn2)c2cc(Cl)c(F)cc2c1=O (racemic) | 32 µg/mL (≈ 81.1 µM) | 16 µg/mL (≈ 40.5 µM) | 4 µg/mL (≈ 10.1 µM) | 32 µg/mL (≈ 81.1 µM) | 4 µg/mL (≈ 10.1 µM) | 4 µg/mL (≈ 10.1 µM) | 512 µg/mL (≈ 1300 µM) | 64 µg/mL (≈ 162 µM) | 8 µg/mL (≈ 20.3 µM) | > 512 µg/mL | 1 µg/mL (≈ 2.53 µM) | – | – | – | – | – | – | – | –
10 | CCOC(=O)c1cn(CC(O)Cn2cncn2)c2c(Cl)cc(Cl)cc2c1=O (racemic) | 128 µg/mL (≈ 311 µM) | 0.5 µg/mL (≈ 1.22 µM) | 8 µg/mL (≈ 19.5 µM) | 4 µg/mL (≈ 9.73 µM) | 1 µg/mL (≈ 2.43 µM) | 4 µg/mL (≈ 9.73 µM) | 32 µg/mL (≈ 77.8 µM) | 1 µg/mL (≈ 2.43 µM) | 512 µg/mL (≈ 1240 µM) | > 512 µg/mL | 4 µg/mL (≈ 9.73 µM) | – | – | – | – | – | – | 8 | 16
11 | CCOC(=O)c1cn(CC(O)Cn2cncn2)c2c(F)cccc2c1=O (racemic) | 8 µg/mL (≈ 22.2 µM) | 512 µg/mL (≈ 1420 µM) | 2 µg/mL (≈ 5.55 µM) | 8 µg/mL (≈ 22.2 µM) | 128 µg/mL (≈ 355 µM) | 32 µg/mL (≈ 88.8 µM) | 32 µg/mL (≈ 88.8 µM) | 64 µg/mL (≈ 178 µM) | 32 µg/mL (≈ 88.8 µM) | > 512 µg/mL | 0.5 µg/mL (≈ 1.39 µM) | – | – | – | – | – | – | – | –
